Assay results from patent publication US20220281848A1, “PYRAZOLE-SUBSTITUTED PYRROLIDINONES AS HERBICIDES” (FMC Corporation, priority 2019, published 2022).

System: plants
Test: Test D pre-emergence, other plants of Tables D1 and D3
Type: in vivo
Details: preemergent, 20 DAA
Procedure: A formulation containing 50 g/L of the test chemical was prepared by dissolving the active ingredient in a mixture of organic solvents and emulsifier, details of which are provided in the table. This formulation was then mixed with a small, variable amount of acetone to aid dissolution, before addition of a 0.2% v/v aqueous solution of an adjuvant, as the aqueous diluent, to form an aqueous spray solution which contains a predetermined concentration of the active ingredient.
This aqueous spray solution was then sprayed onto plants including maize and wheat that had been seed treated with a herbicide safener, after one day's cultivation (for pre-emergence) or after about 12 days' cultivation (for post-emergence). The plants were grown from seeds sown in standard soil, placed in a glasshouse under controlled conditions (at 24/18° C. or 20/16° C., day/night; 16 h light; 65% humidity). After spray application the plants were then grown in a glasshouse under the same conditions and watered twice daily. After 15 d for post-emergence and 20 DAA for pre-emergence the test was evaluated (100=total damage to plant; 0=no damage to plant).

## COc1c(F)cccc1NC(=O)C1C(=O)N(C)CC1c1cc(C(F)(F)F)n(C)n1 (racemic) [Compound 18]
Rate 15
  damage to plant (100=total damage to plant; 0=no damage to plant), ABUTH: 0
  damage to plant (100=total damage to plant; 0=no damage to plant), AMARE: 0
  damage to plant (100=total damage to plant; 0=no damage to plant), BIDPI: 0
  damage to plant (100=total damage to plant; 0=no damage to plant), BRAPL: 10
  damage to plant (100=total damage to plant; 0=no damage to plant), CYPES: 0
  damage to plant (100=total damage to plant; 0=no damage to plant), DIGSA: 0
  damage to plant (100=total damage to plant; 0=no damage to plant), ECHCG: 0
  damage to plant (100=total damage to plant; 0=no damage to plant), ELEIN: 0
  damage to plant (100=total damage to plant; 0=no damage to plant), EPHHL: 0
  damage to plant (100=total damage to plant; 0=no damage to plant), GLXMA: 0
  damage to plant (100=total damage to plant; 0=no damage to plant), IPOHE: 0
  damage to plant (100=total damage to plant; 0=no damage to plant), ORYSA: 0
  damage to plant (100=total damage to plant; 0=no damage to plant), PANMI: 0
  damage to plant (100=total damage to plant; 0=no damage to plant), SETFA: 0
  damage to plant (100=total damage to plant; 0=no damage to plant), SORVU: 0
Rate 30
  damage to plant (100=total damage to plant; 0=no damage to plant), ABUTH: 0
  damage to plant (100=total damage to plant; 0=no damage to plant), AMARE: 0
  damage to plant (100=total damage to plant; 0=no damage to plant), BIDPI: 0
  damage to plant (100=total damage to plant; 0=no damage to plant), BRAPL: 60
  damage to plant (100=total damage to plant; 0=no damage to plant), CYPES: 0
  damage to plant (100=total damage to plant; 0=no damage to plant), DIGSA: 80
  damage to plant (100=total damage to plant; 0=no damage to plant), ECHCG: 30
  damage to plant (100=total damage to plant; 0=no damage to plant), ELEIN: 0
  damage to plant (100=total damage to plant; 0=no damage to plant), EPHHL: 0
  damage to plant (100=total damage to plant; 0=no damage to plant), GLXMA: 0
  damage to plant (100=total damage to plant; 0=no damage to plant), IPOHE: 0
  damage to plant (100=total damage to plant; 0=no damage to plant), ORYSA: 0
  damage to plant (100=total damage to plant; 0=no damage to plant), PANMI: 0
  damage to plant (100=total damage to plant; 0=no damage to plant), SETFA: 0
  damage to plant (100=total damage to plant; 0=no damage to plant), SORVU: 0
Rate 60
  damage to plant (100=total damage to plant; 0=no damage to plant), ABUTH: 0
  damage to plant (100=total damage to plant; 0=no damage to plant), AMARE: 0
  damage to plant (100=total damage to plant; 0=no damage to plant), BIDPI: 0
  damage to plant (100=total damage to plant; 0=no damage to plant), BRAPL: 70
  damage to plant (100=total damage to plant; 0=no damage to plant), CYPES: 0
  damage to plant (100=total damage to plant; 0=no damage to plant), DIGSA: 90
  damage to plant (100=total damage to plant; 0=no damage to plant), ECHCG: 70
  damage to plant (100=total damage to plant; 0=no damage to plant), ELEIN: 0
  damage to plant (100=total damage to plant; 0=no damage to plant), EPHHL: 0
  damage to plant (100=total damage to plant; 0=no damage to plant), GLXMA: 0
  damage to plant (100=total damage to plant; 0=no damage to plant), IPOHE: 0
  damage to plant (100=total damage to plant; 0=no damage to plant), ORYSA: 0
  damage to plant (100=total damage to plant; 0=no damage to plant), PANMI: 0
  damage to plant (100=total damage to plant; 0=no damage to plant), SETFA: 80
  damage to plant (100=total damage to plant; 0=no damage to plant), SORVU: 0
Rate 130
  damage to plant (100=total damage to plant; 0=no damage to plant), ABUTH: 0
  damage to plant (100=total damage to plant; 0=no damage to plant), AMARE: 0
  damage to plant (100=total damage to plant; 0=no damage to plant), BIDPI: 0
  damage to plant (100=total damage to plant; 0=no damage to plant), BRAPL: 80
  damage to plant (100=total damage to plant; 0=no damage to plant), CYPES: 0
  damage to plant (100=total damage to plant; 0=no damage to plant), DIGSA: 90
  damage to plant (100=total damage to plant; 0=no damage to plant), ECHCG: 90
  damage to plant (100=total damage to plant; 0=no damage to plant), ELEIN: 0
  damage to plant (100=total damage to plant; 0=no damage to plant), EPHHL: 0
  damage to plant (100=total damage to plant; 0=no damage to plant), GLXMA: 0
  damage to plant (100=total damage to plant; 0=no damage to plant), IPOHE: 0
  damage to plant (100=total damage to plant; 0=no damage to plant), ORYSA: 0
  damage to plant (100=total damage to plant; 0=no damage to plant), PANMI: 0
  damage to plant (100=total damage to plant; 0=no damage to plant), SETFA: 90
  damage to plant (100=total damage to plant; 0=no damage to plant), SORVU: 0
Rate 250
  damage to plant (100=total damage to plant; 0=no damage to plant), ABUTH: 10
  damage to plant (100=total damage to plant; 0=no damage to plant), AMARE: 0
  damage to plant (100=total damage to plant; 0=no damage to plant), BIDPI: 0
  damage to plant (100=total damage to plant; 0=no damage to plant), BRAPL: 80
  damage to plant (100=total damage to plant; 0=no damage to plant), CYPES: 0
  damage to plant (100=total damage to plant; 0=no damage to plant), DIGSA: 90
  damage to plant (100=total damage to plant; 0=no damage to plant), ECHCG: 90
  damage to plant (100=total damage to plant; 0=no damage to plant), ELEIN: 0
  damage to plant (100=total damage to plant; 0=no damage to plant), EPHHL: 10
  damage to plant (100=total damage to plant; 0=no damage to plant), GLXMA: 0
  damage to plant (100=total damage to plant; 0=no damage to plant), IPOHE: 0
  damage to plant (100=total damage to plant; 0=no damage to plant), ORYSA: 0
  damage to plant (100=total damage to plant; 0=no damage to plant), PANMI: 0
  damage to plant (100=total damage to plant; 0=no damage to plant), SETFA: 90
  damage to plant (100=total damage to plant; 0=no damage to plant), SORVU: 0
Rate 500
  damage to plant (100=total damage to plant; 0=no damage to plant), ABUTH: 30
  damage to plant (100=total damage to plant; 0=no damage to plant), AMARE: 0
  damage to plant (100=total damage to plant; 0=no damage to plant), BIDPI: 0
  damage to plant (100=total damage to plant; 0=no damage to plant), BRAPL: 90
  damage to plant (100=total damage to plant; 0=no damage to plant), CYPES: 0
  damage to plant (100=total damage to plant; 0=no damage to plant), DIGSA: 100
  damage to plant (100=total damage to plant; 0=no damage to plant), ECHCG: 90
  damage to plant (100=total damage to plant; 0=no damage to plant), ELEIN: 0
  damage to plant (100=total damage to plant; 0=no damage to plant), EPHHL: 20
  damage to plant (100=total damage to plant; 0=no damage to plant), GLXMA: 0
  damage to plant (100=total damage to plant; 0=no damage to plant), IPOHE: 0
  damage to plant (100=total damage to plant; 0=no damage to plant), ORYSA: 0
  damage to plant (100=total damage to plant; 0=no damage to plant), PANMI: 0
  damage to plant (100=total damage to plant; 0=no damage to plant), SETFA: 90
  damage to plant (100=total damage to plant; 0=no damage to plant), SORVU: 10
